# Publication PMC9920413, “New Bicyclic Pyridine-Based Hybrids Linked to the 1,2,3-Triazole Unit: Synthesis via Click Reaction and Evaluation of Neurotropic Activity and Molecular Docking” (Molecules, 2023)
# Columns and labels:
# [1] = test system: pentylenetetrazole (PTZ)-induced convulsions; experiment: Antagonism to pentylenetetrazole (PTZ) convulsions; type: in vivo
# Method in brief: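 Outbred mice (18–22 g), six per dose, given compound or emulsifier vehicle; clonic seizures and convulsions after PTZ recorded over 1 h observation. ED50 derived by the Litchfield–Wilcoxon method.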
# [2] = test system: thiosemicarbazide (TSC)-induced convulsions; experiment: Thiosemicarbazide (TSC) seizures; type: in vivo, mice
# Method in brief: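 Mice received compounds 100 mg/kg i.p. in carboxymethylcellulose/Tween-80 suspension 45 min before thiosemicarbazide 18 mg/kg s.c. (0.5% solution). Anti-TSC activity judged by latency to onset of clonic seizures.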
# [3] = test system: maximal electroshock-induced seizures; experiment: Maximal electroshock-induced seizures (MES); type: in vivo; settings: mice, MES 50 mA, 0.2 s
# Procedure: The study of the anticonvulsant activity of hybrids 7a–u was assessed by evaluating the antagonism to pentylenetetrazole (PTZ), thiosemicarbazide convulsive seizures, and maximal electroshock-induced seizures (MES). The PTZ-induced test is considered an experimental model for the clonic component of epilepsy seizures and the prognostic anxiolytic activity of the compounds. PTZ is a common convulsive agent used in animal models to investigate the mechanisms of seizures. The model of thiosemicarbazide (TSC) seizures (affecting the exchange of GABA) causes clonic seizures similar to pentylenetetrazole ones. The MES test is used as an animal model for the generalization of tonic seizures in epilepsy. The neurotoxicity and side effects of the compounds (movement coordination disorder, myorelaxation, and ataxia) were also studied on mice with the “rotating rod”[29] test.
# The anticonvulsant effect of the newly synthesized compounds was investigated by tests comprising pentylenetetrazole, thiosemicarbazide convulsions, and maximal electroshock (MES). Outbred mice (weight 18–22 g) were used for the study. […] Seizures and clonic convulsions were recorded. […]
# The MES test is used as an animal model for the generalized tonic seizures of epilepsy. […] The anticonvulsant properties of compounds were assessed by their prevention of the tonic-extensor phase of convulsions.
# rats [4] = experiment: Open field test; type: in vivo
# Method in brief: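 Rats observed for 5 min in a modified open field whose floor is divided into squares with holes, in daytime under natural light. Horizontal movements, rearing and hole sniffing were counted; eight animals per compound, control and reference drug.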
# mouse = experiment: Elevated plus maze (EPM) test; type: in vivo; settings: 5 min
# Method in brief: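 Mice dosed intraperitoneally with compound or reference before testing, controls receiving emulsifier. Anxiolytic effect scored as increased entries into and time in open arms without raised total motor activity; closed-arm time and center-entry attempts also recorded; significance at p < 0.05.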
# rats [5] = experiment: Electroshock retrograde amnesia, conditioned response of passive avoidance (CRPA); type: in vivo
# Method in brief: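 Rats trained in light/dark passive avoidance with a single 0.4 mA foot shock in the dark compartment, then given maximal electroconvulsive shock (50 Hz, 0.2 s, corneal) immediately after to induce amnesia. Retention tested 24 h later; antiamnesic effect read as increased time in the light compartment versus controls.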
# mice [6] = experiment: Forced swimming test; settings: 6 min;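 note: mice made to swim in a water-filled glass vessel under natural light, with durations of active swimming and immobility recorded across the 6 min session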
# Procedure: Forced swimming test. To assess “despair and depression”, the “compelling swimming” model was used. Experimental animals were forced to swim in a glass container (height 22 cm, diameter 14 cm), filled 1/3 with water. […] The latent period of immobilization, the total duration of active swimming and immobilization are fixed at 6 min (the experiments were conducted under natural light).
# mice [7] = experiment: Rotating rod test (neurotoxicity, myorelaxation); type: in vivo; settings: i.p., myorelaxation in 50% of animals
# Method in brief: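 Compounds given i.p. at 50 to 500 mg/kg; mice placed on a rubber-coated rod rotating at 5 rpm, counting animals unable to stay on for 2 min. TD50 derived by the Litchfield–Wilcoxon method.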
# in vivo = settings: outbred, mouse, in vivo; mice, dead animals after 24 h
# Method in brief: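 Compounds are given intraperitoneally to mice at 50 to 500 mg/kg, with reference drugs at anticonvulsant doses. Muscle relaxation is scored on a rod rotating at 5 rpm as the number of animals unable to stay on for 2 min. ED50, TD50 and LD50 come from the Litchfield and Wilcoxon method.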
# [8] = Mus musculus, read-out: Latency of Convulsions, Induced by TSC, I (index of latent period of TSC seizures)
smiles,measurement,setting,value
"CN1C(=O)CN=C(c2ccccc2)c2cc(Cl)ccc21 [Diazepam, diazepam, reference compound]",ED50,"[1]; Mus musculus, read-out: ED50 (by PTZ antagonism)",0.5 mg/kg
same,TI,[1]; therapeutic index TI = LD50/ED50,360
same,response vs control in vivo at 2 mg/kg,[2]; [8],90%
same,"Latency of Convulsions, Induced by TSC, M ± M","[2]; mice, diazepam 2 mg/kg",9.0 ± 2.5 min
same,"effect on the model of thiosemicarbazide (TSC) seizures, in words","[2]; mice, diazepam 2 mg/kg",not effective
same,anticonvulsant effect in the MES test (protection from tonic and clonic seizures),[3],did not exhibit an anticonvulsant effect
same,"Cells Examination, amount (absolute data during 5 min)",rats [4]; 2 mg/kg,5.0 ±1.2
same,"Horizontal Displacement, amount (absolute data during 5 min)",rats [4]; 2 mg/kg,33.6 ± 6.1
same,"Vertical Displacement, amount (absolute data during 5 min)",rats [4]; 2 mg/kg,6.4 ± 1.4
same,Number of Entries into the Closed Arms,mouse; 2 mg/kg,5.5 ± 1.1
same,Time Spent in Closed Arms,mouse; 2 mg/kg,257.5 ± 25.2 s
same,Time Spent in the Center,mouse; 2 mg/kg,42.5 ± 3.9 s
same,Time Spent in the Open Arms,mouse; 2 mg/kg,57.0 ± 4.2 s
same,"The Time Spent in the Light Chamber When Playing CRPA + MESH after 24 h, Second Day","rats [5]; 2 mg/kg, study for 5 min",126.0 ± 6.5 s
same,"The Time Spent in the Light Chamber during the Training of the CRPA, First Day","rats [5]; 2 mg/kg, study for 5 min",187.0 ± 6.7 s
same,"antiamnestic effect, in words","rats [5]; electroshock retrograde amnesia, CRPA",did not have an antiamnestic effect
same,Total Time of Active Swimming,mice [6]; 2 mg/kg,336.0 ± 8.1 s
same,Total Time of Immobilization,mice [6]; 2 mg/kg,24.0 ± 8.2 s
"CCC1(C)CC(=O)NC1=O (centres unmarked) [Ethosuximide, ethosuximide, reference compound]",TI,"[1]; outbred, mouse, in vivo",8.5
same,TD50,mice [7],520 (413 ÷ 655) mg/kg
same,LD50 at 24 h,in vivo,1320 mg/kg
same,response vs control in vivo at 200 mg/kg,[2]; [8],170%
same,"Latency of Convulsions, Induced by TSC, M ± M","[2]; mice, ethosuximide 200 mg/kg",17.0 ± 1.4 min
same,anticonvulsant effect in the MES test (protection from tonic and clonic seizures),[3],did not exhibit an anticonvulsant effect
same,"Cells Examination, amount (absolute data during 5 min)",rats [4]; 200 mg/kg,0.6 ± 0.5
same,"Horizontal Displacement, amount (absolute data during 5 min)",rats [4]; 200 mg/kg,26.8 ± 5.51
same,"Vertical Displacement, amount (absolute data during 5 min)",rats [4]; 200 mg/kg,5.6 ± 1.8
same,Number of Entries into the Closed Arms,mouse; 200 mg/kg,8.1 ± 2.5
same,Time Spent in Closed Arms,mouse; 200 mg/kg,247.2 ± 27.6 s
same,Time Spent in the Center,mouse; 200 mg/kg,52.8 ± 4.7 s
same,Total Time of Active Swimming,mice [6]; 200 mg/kg,262 ± 25.0 s
same,Total Time of Immobilization,mice [6]; 200 mg/kg,98.0 ± 9.2 s
